Patent US5314913A, “4- or 5-(substituted sulfonyl)methyl-3(2H)-furanones” (American Home Products Corporation, priority 1992, dated 1994)

Each compound was assayed on blood glucose levels in diabetic (db/db) mice (assay: Blood glucose lowering in diabetic db/db mice). Conditions: 100 (mg/kg), p.o. by gavage, 4 doses, difference between mean percent change of vehicle and drug treated group.
Format: in vivo, db/db (C57BL/KsJ) mouse
Experimental: The animals are obese, glucose intolerant and have fasting hyperglycemia which is sometimes accompanied by a paradoxical hyperinsulinemia.
On the morning of Day 1, 12-15 mice [male db/db (C57BLKsJ), Jackson Laboratories, 2 to 7 months of age and body weight 35 to 60 g] were fasted for 4 hours, weighed and a baseline blood sample was collected from the tail-tip of each mouse without anesthesia, placed directly into a fluoride-containing tube, mixed and maintained on ice. Food was then returned to the mice. The plasma was separated and levels of glucose in plasma determined by the Abbott VP Analyzer. Because of the variable plasma glucose levels of the db/db mice, the mice were randomly assigned into 3-5 groups (4-5 mice per group) of equivalent mean plasma glucose levels:
On the afternoon of Days 1, 2 and 3 the vehicle, control or test drugs were administered (p.o.) to the ad libitum fed mice. The positive control, ciglitazone [(±)-5-[4-[(1-methylcyclohexyl]benzyl]-thiazolidine-2,4-dione] see Fujita et al. Diabetes, 32, 804 (1983), was given by gavage at a dose of 100 mg/kg/day. The test compounds were given by gavage at a dose of 100 mg/kg/day. The fourth and final dose was administered on the morning of day 4, after the mice had been fasted for 18 h. A blood sample was collected immediately preceeding the last dose, followed by samples collected at 90 and 120 min after drug administration. Insulin is immediately administered to each mouse after the 120 min sample. Serial blood samples were collected at 45 and 120 min after administration. The plasma was separated and the levels of glucose in plasma determined by the Abbot VP analyzer.
Analysis of variance followed by Dunnett's multiple comparison (one-sided) was used to estimate the degree of statistical significance of the difference between the vehicle control group and the individual drug-treated groups. A drug was considered active, at the specific dose administered, if the difference of the plasma glucose level has a p<0.10.
The actual difference between the mean percent change of blood glucose levels of the vehicle and the drug treated group is reported in Table 1.

Compound	Blood Glucose Levels % Change from Vehicle
N-[[(4,5-Dihydro-5,5-dimethyl-4-oxo-3-furanyl)methyl]sulfonyl]phenylacetamide [Example 5]	-23%

Same assay, conditions: Mus musculus, po, p.o. by gavage, 4 doses, difference between mean percent change of vehicle and drug treated group, read-out: Blood Glucose Levels % Change from Vehicle

Compound	change in vivo at 100 mg/kg
CC1(COc2ccc(CC3SC(=O)NC3=O)cc2)CCCCC1 (racemic) [Ciglitazaone, (±)-5-[4-[(1-methylcyclohexyl]benzyl]-thiazolidine-2,4-dione, reference compound]	-50 to -24%
CC1(C)OC=C(CS(=O)(=O)c2ccccc2)C1=O [Example 1, 2,2-Dimethyl-4-(phenylsulfonyl)methyl-3(2H)-furanone]	-30%
CC1(C)OC=C(CS(=O)(=O)c2cccc3ccccc23)C1=O [Example 2, 2,2-Dimethyl-4-[(1-naphthalenyl)sulfonyl]methyl-3(2H)-furanone]	-21%
COc1ccccc1S(=O)(=O)CC1=COC(C)(C)C1=O [Example 3, 4-[(2-Methoxyphenyl)sulfonyl]methyl-2,2-dimethyl-3(2H)-furanone]	-21%
CC1(C)OC=C(CS(=O)(=O)c2ccc([N+](=O)[O-])cc2)C1=O [Example 4, 2,2-Dimethyl-4-[(4-nitrophenyl)sulfonyl]methyl-3(2H)-furanone]	-30%
O=C1C(CS(=O)(=O)c2ccccc2)=COC12CCCCC2 [Example 6]	-25%
CC1(C)OC(CS(=O)(=O)c2ccccc2)=CC1=O [Example 7, 2,2-Dimethyl-5-(phenylsulfonyl)methyl-3(2H)-furanone]	-38%
CC1(C)OC(C(C)(C)S(=O)(=O)c2ccccc2)=CC1=O [Example 8, 2,2-Dimethyl-5-[1-methyl-1-(phenylsulfonyl)ethyl]-3(2H)-furanone]	-42%
CC1(C)OC(C2(S(=O)(=O)c3ccccc3)CCCC2)=CC1=O [Example 9, 2,2-Dimethyl-5-[1-(phenylsulfonyl)-1-cyclopentyl]-3(2H)-furanone]	-25%
CC1(c2ccccc2)OC(CS(=O)(=O)c2ccccc2)=CC1=O (stereo not drawn) [Example 10, 2-Methyl-2-phenyl-5-(phenylsulfonyl)methyl-3(2H)-furanone]	-19%

The compounds below were run on cholesterol absorption (assay: Cholesterol absorption in normal rats (oral [14C] cholesterol, serum radioactivity)). Conditions: 100 mg/kg, serum radioactivity at 6 hr.
Format: in vivo
Experimental: Cholesterol absorption was measured in normal rats following simultaneous oral doses of the test compounds and radioactive cholesterol according to the method of Cayen and Dvornik except that [^14 C] cholesterol in propylene glycol and olive oil (vehicle for test compound) were used. Serum radioactivity was measured at 6 hr [Cayen, M. N. and Dvornik, D., J. Lipid Res., 20, 162 (1979)].

Compound	decrease in cholesterol absorption
CC1(C)OC=C(CS(=O)(=O)c2ccccc2)C1=O [Example 1, 2,2-Dimethyl-4-(phenylsulfonyl)methyl-3(2H)-furanone]	79%

Same assay, conditions: 250 mg/kg, serum radioactivity at 6 hr

Compound	decrease in cholesterol absorption
CC1(C)OC(CS(=O)(=O)c2ccccc2)=CC1=O [Example 7, 2,2-Dimethyl-5-(phenylsulfonyl)methyl-3(2H)-furanone]	58%
CC1(c2ccccc2)OC(CS(=O)(=O)c2ccccc2)=CC1=O (stereo not drawn) [Example 10, 2-Methyl-2-phenyl-5-(phenylsulfonyl)methyl-3(2H)-furanone]	35%

These compounds were tested on gastric mucosal lesions produced by ethanol (assay: Ethanol induced cytotoxicity in rats (gastric mucosal lesions)). Conditions: Rattus norvegicus; 10 mg/kg, oral, 1 hour prior to ethanol; read-out: % Inhibition (of lesion formation).
Format: in vivo, Male Sprague-Dawley rats
Experimental: The purpose of this assay is to evaluate the effectiveness of the compounds of the present invention in preventing the formation of gastric mucosal lesions produced by ethanol. The assay is based on A. Robert, et al: Gastroenterology, 77: 433-443, 1979.
Male Sprague-Dawley rats weighing between 120-150 grams were fasted for 24 hours prior to the experiment (water ad libitum). At least two hours before dosing, the animals were placed in individual cages with wire grid bottoms and denied access to water.
Ethanol was administered orally at 1 mL per animal. The compounds of the present invention were dissolved in water or suspended in water with 0.5% carboxymethylcullulose and administered orally at a dose based on an appropriate standard giving ED50 to ED75 response of cytoprotective activity.
The rats were randomly divided into groups of equal number, ordinarily 10 to a group. The rats were weighed and the individual weights were recorded. Exactly 1 hour prior to the administration of ethanol, the screening group was treated with the compounds of the present invention, and the control group with the vehicle. One hour after administering the ethanol the animals were sacrificed by cervical dislocation. The stomachs were removed, cut along the greater curvature and cleansed of all debris with tap water. The stomachs were set aside and kept moist with saline until the lesions were scored.
Macroscopic lesions on the gastric mucosa were numerically graded. The final grade assigned a stomach was the sum of all the grades.
Streaks longer than 6 mm are graded in multiples of 2 mm.
The degree of cytotoxicity occurring in each group is represented as the mean± S.E.M.
The mean of each treatment group was compared to the control group and expressed as the % inhibition of lesion formation.

Compound	inhibition in vivo at 10 mg/kg
CC1(c2ccc(F)cc2)OC=C(CS(=O)(=O)C(C)(C)C)C1=O (stereo not drawn) [Example 18, 4-[(1,1-Dimethylethyl)sulfonyl]methyl-2-(4-fluorophenyl)-2-methyl-3(2H)-furanone]	80%
CC1(c2ccc(Cl)cc2)OC=C(CS(=O)(=O)C(C)(C)C)C1=O (stereo not drawn) [Example 19, 4-[(1,1-Dimethylethyl)sulfonyl]methyl-2-(4-chlorophenyl)-2-methyl-3(2H)-furanone]	45%

Same assay, conditions: Rattus norvegicus; 25 mg/kg, oral, 1 hour prior to ethanol; read-out: % Inhibition (of lesion formation)

Compound	inhibition in vivo at 25 mg/kg
CC1(C)OC(CS(=O)(=O)c2ccc(Cl)cc2)=CC1=O [Example 11, 5-[(4-Chlorophenyl)sulfonyl]methyl-2,2-dimethyl-3(2H)-furanone]	44%
CC1(C)OC(CS(=O)(=O)c2ccc(F)cc2)=CC1=O [Example 12, 5-[(4-Fluorophenyl)sulfonyl]methyl-2,2-dimethyl-3(2H)-furanone]	6%
CC1(C)OC(CS(C)(=O)=O)=CC1=O [Example 13, 2,2-Dimethyl-5-(methylsulfonyl)methyl-3(2H)-furanone]	54%
CC1(C)OC(CS(=O)(=O)c2ccc(C(C)(C)C)cc2)=CC1=O [Example 14, 2,2-Dimethyl-5-[[4-(1,1-dimethylethyl)phenyl]sulfonyl]methyl-3(2H)-furanone]	43%
CC1(C)OC=C(CS(=O)(=O)c2ccc(F)cc2)C1=O [Example 15, 4-[(4-Fluorophenyl)sulfonyl]methyl-2,2-dimethyl-3(2H)-furanone]	42%
CC1(C)OC=C(CS(=O)(=O)c2ccc(C(C)(C)C)cc2)C1=O [Example 16, 2,2-Dimethyl-4-[[4-(1,1-dimethylethyl)phenyl]sulfonyl]methyl-3(2H)-furanone]	30%
CC1(C)OC=C(CS(=O)(=O)C(C)(C)C)C1=O [Example 17, 4-[(1,1-Dimethylethyl)sulfonyl]methyl-2,2-dimethyl-3(2H)-furanone]	87%
CC1(c2ccccc2)OC=C(CS(=O)(=O)C(C)(C)C)C1=O (stereo not drawn) [Example 20, 4-[(1,1-Dimethylethyl)sulfonyl]methyl-2-methyl-2-phenyl-3(2H)-furanone]	76%
